# From ChEMBL document CHEMBL3046277, “Inheritance mode and realized heritability of resistance to imidacloprid in the brown planthopper, Nilaparvata lugens (Stål) (Homoptera: Delphacidae)” (2009)
# How the values were obtained:
# Format in all cases: functional
# Nilaparvata lugens [1] = experiment: Resistance ratio of LC50 for Nilaparvata lugens (brown planthopper) F1 progeny to LC50 for imidacloprid-susceptible brown planthopper
# Nilaparvata lugens [2] = experiment: Insecticidal activity against 23 generation selection pressure-induced imidacloprid-resistance Nilaparvata lugens (brown planthopper) at third instar nymph stage in rice stem assessed as mortality treated for 30 secs prior to nymph infestation measured at 96 hr post-drug treatment by rice-stem dipping method
# Nilaparvata lugens [3] = experiment: Resistance ratio of LC50 for Nilaparvata lugens (brown planthopper) F1' progeny to LC50 for imidacloprid-susceptible brown planthopper
# Nilaparvata lugens [4] = experiment: Insecticidal activity against Nilaparvata lugens (brown planthopper) offspring obtained after 23 selected generations in rice stem assessed as mortality treated for 30 secs prior to nymph infestation measured at 96 hr post-drug treatment by rice-stem dipping method; details: read-out: Log10LC50 (converted)
# Nilaparvata lugens [5] = experiment: Insecticidal activity against third instar nymph stage of imidacloprid-susceptible Nilaparvata lugens (brown planthopper) in rice stem assessed as mortality treated for 30 secs prior to nymph infestation measured at 96 hr post-drug treatment by rice-stem dipping method
# Nilaparvata lugens [6] = experiment: Resistance ratio of LC50 for imidacloprid-resistance Nilaparvata lugens (brown planthopper) to LC50 for imidacloprid-susceptible brown planthopper
# Nilaparvata lugens [7] = experiment: (§1) Insecticidal activity against Nilaparvata lugens (brown planthopper) F1' progeny generated from reciprocal cross between male imidacloprid-susceptible strain and female imidaclporid-resistant strain in rice stem assessed as mortality treated for 30 secs prior to nymph infestation measured at 96 hr post-drug treatment by rice-stem dipping method
# Nilaparvata lugens [8] = experiment: Insecticidal activity against Nilaparvata lugens (brown planthopper) parental generation in rice stem assessed as mortality treated for 30 secs prior to nymph infestation measured at 96 hr post-drug treatment by rice-stem dipping method; details: read-out: Log10LC50 (converted)
# Nilaparvata lugens [9] = experiment: as §1, with “F1” for “F1'”, “female” for “male”, “male” for “female”
smiles,measurement,setting,value
O=[N+]([O-])/N=C1\NCCN1Cc1ccc(Cl)nc1 [IMIDACLOPRID],RatioLC50,Nilaparvata lugens [1],233.45
same,LC50,Nilaparvata lugens [2],106 µg/mL
same,RatioLC50,Nilaparvata lugens [3],274.45
same,LC50,Nilaparvata lugens [4],9.43 mM
same,LC50,Nilaparvata lugens [5],0.11 µg/mL
same,RatioLC50,Nilaparvata lugens [6],964.09
same,LC50,Nilaparvata lugens [7],30.2 µg/mL
same,LC50,Nilaparvata lugens [8],62.5 mM
same,LC50,Nilaparvata lugens [9],25.7 µg/mL
